Data published in PMC9926234, “Iterative computational design and crystallographic screening identifies potent inhibitors targeting the Nsp3 macrodomain of SARS-CoV-2” (Proceedings of the National Academy of Sciences of the …, 2023).
Values joined by “and” are separate entries in the source; they are usually repeats but may differ in a detail not shown here. Identical values can stand only once. Like-named read-outs stand apart in the source and are kept apart here.

Key:
[1] = tested on: P-glycoprotein (human MDR1); test: MDR1-MDCK II cell permeability; settings: dog, MDCK-MDR1, pH 7.4
[2] = molecular target: T1, SARS-CoV-2 NSP3 Mac1 (Severe acute respiratory syndrome coronavirus 2, UniProt P0DTD1); test: biochemical; format: binding; settings: for IC50: read-out: IC50; for Ki: read-out: Ki***
[3] = molecular target: T2, TARG1 (Homo sapiens, UniProt Q9Y530); test: adapted HTRF-based peptide displacement assay (off-target); format: binding; settings: for selectivity for viral Mac1 over human macrodomain: versus TARG1, in words
T2 construct: Targ1_HTRF; HTRF assay; pET22b(+); His6, TEV; 1-153; made in house
T2 sequence (Q9Y530 with tags, fused parts or gaps): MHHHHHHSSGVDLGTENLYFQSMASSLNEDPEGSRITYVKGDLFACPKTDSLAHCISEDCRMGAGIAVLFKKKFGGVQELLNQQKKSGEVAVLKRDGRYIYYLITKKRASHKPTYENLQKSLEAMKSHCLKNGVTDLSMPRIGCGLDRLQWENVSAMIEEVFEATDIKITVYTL

[4] = molecular target: T3, MacroD2 (Homo sapiens, UniProt A1Z1Q3); test: as above; format: binding; settings: for selectivity for viral Mac1 over human macrodomain: versus MacroD2, in words
T3 construct: MacroD2_HTRF; HTRF assay; pET22b(+); His6, TEV, Avi; made in house
T3 sequence (A1Z1Q3 with tags, fused parts or gaps): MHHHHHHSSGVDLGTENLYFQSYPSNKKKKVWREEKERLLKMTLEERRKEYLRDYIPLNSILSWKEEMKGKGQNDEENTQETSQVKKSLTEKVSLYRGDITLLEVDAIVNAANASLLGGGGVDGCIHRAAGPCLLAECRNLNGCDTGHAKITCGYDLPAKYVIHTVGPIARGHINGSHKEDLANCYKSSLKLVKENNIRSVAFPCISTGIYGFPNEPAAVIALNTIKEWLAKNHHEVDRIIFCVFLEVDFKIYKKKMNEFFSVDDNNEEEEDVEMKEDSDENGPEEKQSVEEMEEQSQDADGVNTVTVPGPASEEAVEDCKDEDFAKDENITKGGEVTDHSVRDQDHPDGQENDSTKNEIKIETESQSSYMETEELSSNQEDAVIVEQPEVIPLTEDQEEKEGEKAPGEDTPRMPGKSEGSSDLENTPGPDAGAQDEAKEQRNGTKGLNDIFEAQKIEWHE

[5] = molecular target: T1, SARS-CoV-2 NSP3 Mac1; format: binding; settings: for Refined occupancy: ligand occupancy after refinement (phenix.refine); for HIT*: true hit = binding in crystallographic soaking or the HTRF-based binding assay
[6] = tested on: MDR1-MDCKII cells; test: MDR1-MDCK II cell permeability; settings: MDR1-MDCKII cells
[7] = molecular target: T1, SARS-CoV-2 NSP3 Mac1; format: binding; parameters: contains a conserved macrodomain enzyme (Mac1); settings: for Spearman est (compound concentration vs apparent Tm): DSF dose responsiveness, 1 µM nsp3 mac1, adj p given; for DSF max dTma: maximal thermal upshift
How it was run: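 Differential scanning fluorimetry using 5 µM Fluorescent Yellow dye in place of SYPRO Orange. Compounds run in triplicate at seven two-fold dilutions from 1,000 or 100 μM, with ΔTma taken against a DMSO control in the same plate region. Dose-response significance assessed by Spearman's coefficient between concentration and ΔTma.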

[8] = molecular target: T1, SARS-CoV-2 NSP3 Mac1; parameters: contains a conserved macrodomain enzyme (Mac1); differential scanning fluorimetry, maximum thermal upshift; settings: binder
[9] = tested on: P-glycoprotein (human MDR1); test: in vitro; settings: dog, MDCK-MDR1, pH 7.4
[10] = molecular target: T1, SARS-CoV-2 NSP3 Mac1; test: biochemical; parameters: HTRF ADPr-peptide displacement assay with Mac1, dose-response IC50; settings: read-out: IC50 [µM] / 0.5, 1.2, 1.4
[11] = molecular target: T1, SARS-CoV-2 NSP3 Mac1; parameters: contains a conserved macrodomain enzyme (Mac1); Differential scanning fluorimetry of Mac1, maximum thermal upshift; settings: maximum shift over tested concentrations; binder
[12] = tested on: SARS-CoV-2 NSP3 Mac1; test: Overall hit call (binding in crystallographic soaking or the HTRF-based binding assay)
Excerpt: Supplement pnas.2212931120.sd01.xlsx, sheet "Compound Summary" | column: HIT*

[13] = molecular target: T1, SARS-CoV-2 NSP3 Mac1; parameters: method as in PMID 33853786; settings: cited from earlier work
[14] = HTRF ADPr-peptide displacement from SARS-CoV-2 Mac1
[15] = Ki estimation from HTRF-derived IC50, Cheng-Prusoff, peptide 400nM, Kd 2.68µM
[16] = PanDDA 1-BDC value of the event, crystal soak, compound concentration 100 mM, per dataset
[17] = PanDDA event map, 1 minus background density correction, crystal soaking of Mac1
[18] = crystal soak, compound concentration 100 mM, per dataset
[19] = PanDDA event map background density correction, crystal soak, compound concentration 100 mM
[20] = PanDDA event map, crystal soak, Compound_concentration 100 mM, Echo_dispense_volume 40 nl
[21] = crystal soak, Compound_concentration 100 mM, Echo_dispense_volume 40 nl, PanDDA run (background map) dmso_34, nohits_35 or nohits_62
[22] = ligand modeled in the crystal structure, crystal soak, compound concentration 100 mM

CC(C(=O)O)c1cccc(C(=O)c2ccccc2)c1 (stereo not drawn) [Ketoprofen]
Papp A→B at 90 min, 10 µM [1]: 17.6 ± 2.5 ×10⁻⁶ cm/s | Papp B→A at 90 min, 10 µM [1]: 16.1 ± 0.5 ×10⁻⁶ cm/s

O=C(O)C1(F)CN(c2ncnc3[nH]c4cc(F)ccc4c23)CC12CCC2 (stereo not drawn) [LL1_0023]
IC50 [2, 14]: 6 to 10 µM and 5.8 to 10.9 µM | IC50 ([2]; HTRF): 5.8 µM and 10.9 µM | Ki [2, 15]: 5 µM and 9.5 µM | displacement of the ADPr-conjugated peptide (off-target activity) ([3]; compound at 50 µM): active | displacement of the ADPr-conjugated peptide (off-target activity) ([3]; compound at 1 mM): 50% | displacement of the ADPr-conjugated peptide (off-target activity) ([4]; compound at 1 mM): 50% | 1-BDC [5, 16]: 0.28 | 1-BDC (PanDDA) [5, 17]: 0.16 | PanDDA hit? [5, 18]: TRUE | Modeled? ([5]; ligand modeled from this dataset, compound concentration 100 mM): TRUE | Refined occupancy ([5]; crystal soaking of Mac1): 32 | HIT* [5]: Y | permeability relative to the Z8539 scaffold [6]: 3 fold | Spearman est (compound concentration vs apparent Tm) [7]: 0.98 | DSF max dTma [7]: 4.53 ˚C

O=C(c1cn[nH]c(=O)c1)N1CCC(CF)(C(=O)O)C1 (stereo not drawn) [R8407, REAL250001448407]
DSF max dTma [8]: 0 degC

Nc1ncnc2c1ncn2Cc1ccc(Cl)cn1 [Z0078, ZINC000559260078]
DSF max dTma [8]: 0.98 degC

Nc1ncnc2c1ncn2Cc1cccc(C(F)(F)F)c1 [Z0893, ZINC000110510893]
DSF max dTma [8]: 0.5 degC

CC(CSc1nnc2[nH]cnn12)c1ccccc1 (stereo not drawn) [Z3280, ZINC000920153280]
DSF max dTma [8]: 0 degC

Nc1ncnc2c1ncn2Cc1cc(-c2ccco2)on1 [Z4827, ZINC000681764827]
DSF max dTma [8]: 0.63 degC

O=C(NC1c2cccc(O)c2CC1C(=O)O)c1ccc2[nH]c(CO)nc2c1 (stereo not drawn) [Z8539_0002]
IC50 [2, 14]: 1.3 to 6.7 µM | IC50 ([2]; HTRF): 1.3 µM and 6.7 µM | Ki [2, 15]: 1.1 µM and 5.8 µM | selectivity for viral Mac1 over human macrodomain [3]: selective for viral Mac1 | selectivity for viral Mac1 over human macrodomain [4]: selective for viral Mac1 | 1-BDC [5, 16]: 0.26 | 1-BDC [5, 19]: 0.19 | 1-BDC [5, 17]: 0.29 | 1-BDC (PanDDA) [5, 17]: 0.19 | 1-BDC [5, 20]: 0.29 | PanDDA hit? [5, 21]: TRUE | PanDDA hit? [5, 18]: TRUE | Modeled? ([5]; ligand modeled from this dataset, compound concentration 100 mM, Echo dispense volume 40 or 80 nl): TRUE | Modeled? [5, 22]: TRUE | HIT* [5]: Y | Papp A→B [9]: 0.8 ± 0.2 ×10⁻⁶ cm/s | Papp B→A [9]: 1.4 ± 1 ×10⁻⁶ cm/s | Spearman est (compound concentration vs apparent Tm) [7]: 0.74 | DSF max dTma [7]: 5.39 ˚C

O=C(NC1c2cccc(O)c2CC1C(=O)O)c1cnc2c(c1)CCCN2 (stereo not drawn) [Z8539_0006, 8539_0006]
IC50 [10]: 168 µM | DSF max dTma [8]: 0 degC

O=C(NC1c2cccc(O)c2CC1C(=O)O)c1cnc(NC2CCOCC2)cn1 (stereo not drawn) [Z8539_0007, 8539_0007]
IC50 [10]: 6.4 µM | DSF max dTma [11]: 3.42 °C

O=C(NC1c2cccc(O)c2CC1C(=O)O)c1ccc(NCC2CC2)nc1 (stereo not drawn) [Z8539_0009, 8539_0009]
IC50 [10]: 17.1 µM | DSF max dTma [11]: 2.03 °C

O=C1COc2cc(C(=O)NC3c4cccc(O)c4CC3C(=O)O)ccc2N1 (stereo not drawn) [Z8539_0014, 8539_0014]
IC50 [10]: 27.9 µM | DSF max dTma [11]: 1.83 °C

O=C(Nc1ccc(C(=O)NC2c3ccccc3CC2C(=O)O)cc1)NC1CC1 (stereo not drawn) [Z8539_0029, 8539_0029]
IC50 [10]: 4.8 µM | DSF max dTma [11]: 3.66 °C

O=C(Nc1ccc(C(=O)N[C@H]2c3ccccc3CC[C@H]2C(=O)O)cc1)NC1CC1 [Z8539_0030, 8539_0030]
IC50 [10]: 5.9 µM | DSF max dTma [11]: 4.92 °C

O=C(NC1c2cccc(O)c2CC1C(=O)O)c1ccc2[nH]cnc2c1 (stereo not drawn) [Z8539_2001]
binding to Mac1 in the HTRF assay, result in words [2]: did not affect the binding affinity | IC50 ([2]; HTRF ADPr-conjugated peptide displacement): 5.4 µM | Ki [2]: 4.7 µM | selectivity for viral Mac1 over human macrodomain [3]: selective for viral Mac1 | selectivity for viral Mac1 over human macrodomain [4]: selective for viral Mac1 | 1-BDC [5, 19]: 0.23 and 0.42 | 1-BDC (PanDDA) [5, 17]: 0.23 | 1-BDC [5, 20]: 0.21 | PanDDA hit? [5, 21]: TRUE | Modeled? [5, 22]: TRUE | Refined occupancy ([5]; crystal soaking of Mac1): 46 | HIT* [12]: Y | Papp A→B [9]: 1.1 ± 0.1 ×10⁻⁶ cm/s | Papp B→A [9]: 0.5 ×10⁻⁶ cm/s

Nc1ncnc(N2CCC(Oc3ccncc3)C2)c1Cl (stereo not drawn) [Z9710, ZINC000302059710]
DSF max dTma [8]: 0 degC

Nc1ccc(C(=O)O)cc1 [ZINC920, 4-aminobenzoic acid]
binding to Mac1 in the fragment screen, result in words [13]: did not bind
